Assay [1] has as its target T1, Polycomb protein EED (Homo sapiens, UniProt O75530). Description: TR-FRET Binding Assay. The conditions noted are these: pH 7.5; 25 °C. On the procedure: The following buffer was used to set up the binding reactions: 20 mM Tris-HCl pH 7.5, 200 mM NaCl, 0.01% Tween-20, 10 μM DTT, and 0.05% BSA, with the DTT and BSA added fresh before initiating the binding assay. […] The reactions were then incubated for 1 h at 25 °C in a humidified chamber to obtain thermodynamic equilibrium before detection on the PerkinElmer Envision plate reader using a LanthaScreen TR-FRET protocol.

Assay [2] addresses T1, Polycomb protein EED. Nature of the assay: EED A-395 Peptide Competition Assay. The following applies: pH 7.5; 25 °C. The method, then: The following buffer was used to set up the binding reactions: 20 mM Tris-HCl pH 7.5, 200 mM NaCl, 0.01% Tween-20, 10 μM DTT, and 0.05% BSA, with the DTT and BSA added fresh before initiating the binding assay. […] The reactions were then incubated for 1 h at 25 °C in a humidified chamber before detection on the PerkinElmer Envision plate reader using an AlphaLISA/Screen protocol.

The target of assay [3] is T1, Polycomb protein EED. Nature of the assay: Radioligand Binding Assay. The conditions noted are these: 23 °C. The method, then: 30 μl of reaction mixtures were incubated at 23 °C for 70 min. To stop the enzymatic reactions, 150 μl of 10% trichloroacetic acetic acid (TCA) was added, mixed and transferred to filter plates (Millipore; cat. # MSFBN6B10). Plates were centrifuged at 2,000 r.p.m. (Allegra X-15R - Beckman Coulter, Inc.) for 2 min followed by two additional 10% TCA washes and one ethanol wash followed by centrifugation.

The text below walks through data of BindingDB's records for doi:10.1038/nchembio.2306 (AbbVie Inc, 2017).

Bounds are passed on as bounds.

T1 sequence (O75530 whole entry): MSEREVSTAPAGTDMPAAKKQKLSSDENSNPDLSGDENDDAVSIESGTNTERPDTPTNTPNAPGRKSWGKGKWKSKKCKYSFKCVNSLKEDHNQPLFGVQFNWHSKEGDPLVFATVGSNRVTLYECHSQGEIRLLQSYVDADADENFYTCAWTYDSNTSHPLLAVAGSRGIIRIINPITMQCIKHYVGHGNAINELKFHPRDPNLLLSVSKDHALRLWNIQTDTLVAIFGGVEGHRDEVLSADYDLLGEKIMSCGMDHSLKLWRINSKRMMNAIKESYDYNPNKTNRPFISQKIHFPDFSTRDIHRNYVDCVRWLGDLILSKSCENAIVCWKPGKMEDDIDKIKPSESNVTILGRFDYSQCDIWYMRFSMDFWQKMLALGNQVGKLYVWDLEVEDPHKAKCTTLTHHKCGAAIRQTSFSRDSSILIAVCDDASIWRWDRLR

Compound `Cc1cccc(F)c1CN1C[C@H](c2cn(C)c3ccccc23)[C@@H](N(C)C)C1` (racemic) [rac-(3R,4S)-1-(2-fluoro-6-methylbenzyl)-N,N-dimethyl-4-(1-methyl-1H-indol-3-yl)pyrrolidin-3-amine (2)] returned a Ki at Polycomb protein EED [1] of 4 nM. Same read-out and setting: the result for `CN(C)[C@H]1CN([C@H]2CCc3cccc(F)c32)C[C@@H]1c1cn(C)c2ccccc12` [(3R,4S)-1-[(1S)-7-fluoroindan-1-yl]-N,N-dimethyl-4-(1-methylindol-3-yl)pyrrolidin-3-amine (3)] reads 1 nM. With `CN(C)[C@@H]1CN(Cc2ccccc2)C[C@H]1c1ccc(N2CCN(S(C)(=O)=O)CC2)cc1` [A-395N (6)], the IC50 is 1320 nM at Polycomb protein EED [2] and greater than 50000 nM on Polycomb protein EED [3]. The same compound came in with an inhibitory constant (Ki) at Polycomb protein EED [1] of 1830 nM.
